Results as given in patent US12144791B2, “KRAS agonists, pharmaceutical compositions, and uses in managing cancer” (Emory University, priority 2019, dated 2024).
“Also recorded” adds a separate entry of the source.

Experiments:
[1] = tested on: A549, H157, Calu-1 and H292 cells; assay: Apoptosis by FACS analysis of Annexin V/PI staining; type: cell-based, human
Protocol: (§1) Activated KRAS can trigger cell death via apoptosis and autophagy-associated cell death in cancer cells. To test whether KRA-533- activated KRAS promotes apoptosis and autophagic cell death, A549, H157, Calu-1 and H292 cells were treated with increasing concentrations of KRA-533 for 48 h, followed by analysis of KRAS activity, apoptosis and autophagy. […] Autophagy was measured by analysis of LC3-I/LC3-II and p62 following treatment of cells with KRA-533. It is well known that p62 is an autophagy receptor or substrate that can be degraded by autophagy. In addition to LC3-II, p62 was analyzed as another autophagy marker. […] To further quantify the level of autophagy, a GFP-LC3 construct was used to indicate autophagosomes. After treatment with KRA-533, GFP-LC3 redistributed from a diffuse staining pattern in the cytoplasm and nucleus to a cytoplasmic punctate structure that specifically labels pre-autophagosomal and autophagosomal membranes (i.e. GFP-LC3 vac cells). […] These findings indicate that, in addition to apoptosis, KRA-533 can also induce autophagic cell death.

KRAS G12D = KRAS G12D (Homo sapiens, UniProt P01116, G12D); assay: In vitro cell-free GDP-GTP exchange, KRAS G12D; type: biochemical; conditions: with GEF (RASGRP1) and GAP (RASA1), 25° C., 60 min
Protocol: (§2) GTPγS, purified GFP (RASGRP1, 180 nM) and GAP (RASA1, 180 nM) at 25° C. in the presence or absence of increasing concentrations of KRA-533.
(§3) To test whether KRA-533 directly binds to KRAS, a thermal shift assay was employed. […] To further assess whether KRA-533 activates KRAS directly, an in vitro cell-free GDP-GTP exchange experiment was carried out. Purified WT, G12C, G12D or G13D mutant KRAS proteins were incubated with purified GEF (RASGRP1) and GAP (RASA1) proteins in reaction buffer containing [γ-35S]-GTP in the absence or presence of increasing concentrations of KRA-533 at 25° C. for 60 min. KRAS activity was quantified by liquid scintillation counting. […] These findings indicate that KRA-533 not only activates WT KRAS but also has the capacity to further enhance KRAS activity of mutant KRAS.

NSCLC cells = assay: MTS Cell Proliferation Colorimetric Assay; type: cell-based, human; conditions: 48 h
Text: (§4) A library containing small molecules from the National Cancer Institute (NCI) was employed to dock the GTP/GDP binding pocket of KRAS (PDB ID code: 4EPT) using the University of California, San Francisco (UCSF) DOCK 6.1 program suite. The small molecules were ranked according to their energy scores. Top 500 small molecules with predicted binding energies were selected for screening of cytotoxicity in human lung cancer cells by sulforhodamine B (SRB) assay. […] This lead compound was named KRAS agonist-533 (KRA-533) (FIG. 1A). To test whether KRA-533 regulates KRAS activity in lung cancer cells, human lung cancer cell lines with or without KRAS mutation were treated with KRA-533 (10 μM) for 48 h. […] Cell proliferation was also measured following treatment of cells for 48 h using MTS Cell Proliferation Colorimetric Assay Kit.

KRAS S17A [2] = molecular target: T1, KRAS S17A (Homo sapiens, UniProt P01116, S17A); assay: Thermal shift assay, purified KRAS S17A; type: binding
T1 construct: made in house
Protocol: (§5) Melting temperature (Tm) values of DMSO control and 15 μM KRA-533 are shown.
(§6) To further test this intracellularly, GFP-tagged WT, S17A, K117A and AA KRAS mutants were exogenously transfected into A549 cells. […] Activities of exogenous GFP-tagged WT and KRAS mutants were analyzed by Western blot using GFP antibody.

KRAS K117A = molecular target: T2, KRAS K117A (Homo sapiens, UniProt P01116, K117A); assay: Thermal shift assay, purified KRAS K117A; type: binding
T2 construct: made in house
Protocol: as §5, §6

KRAS G12C = KRAS G12C (Homo sapiens, UniProt P01116, G12C); assay: In vitro cell-free GDP-GTP exchange, KRAS G12C; type: biochemical; conditions: with GEF (RASGRP1) and GAP (RASA1), 25° C., 60 min
Protocol: as §2, §3

WT KRAS = WT KRAS (Homo sapiens, UniProt P01116); assay: In vitro cell-free GDP-GTP exchange, WT KRAS; type: biochemical; conditions: with GEF (RASGRP1) and GAP (RASA1), 25° C., 60 min
Protocol: as §2
(§7) GTPγS, purified GFP (RASGRP1, 180 nM) and GAP (RASA1, 180 nM) at 25° C. in the presence or absence of 15 μM KRA-533. The radioactivity remaining on the protein after intensive washing was quantified by liquid scintillation.
as §3, §6

KRAS S17A [3] = molecular target: T1, KRAS S17A; assay: In vitro cell-free GDP-GTP exchange, KRAS S17A; type: biochemical; conditions: 15 μM
Protocol: as §7, §6

[4] = Single-dose maximum tolerated dose (MTD); type: in vivo
Protocol: To define the appropriate doses of KRA-533 for in vivo experimentation, standard single-dose maximum tolerated dose (MTD) was determined. Nu/Nu nude mice were treated with a single dose of 150, 300 or 400 mg/kg i.p., followed by toxicity observations. […] Based on these findings, mice might die mainly from liver and kidney damage at a single 400 mg/kg dose. Thus, the single dose MTD of KRA-533 ranges from 300 to 400 mg/kg. One tenth of single-dose MTD was contemplated (˜30-40 mg/kg) for continuous treatment, e.g., between 10 and 30 mg/kg/day.

KRAS G13D = KRAS G13D (Homo sapiens, UniProt P01116, G13D); assay: In vitro cell-free GDP-GTP exchange, KRAS G13D; type: biochemical; conditions: with GEF (RASGRP1) and GAP (RASA1), 25° C., 60 min
Protocol: as §2, §3

[5] = tested on: A549, H157, Calu-1 and H292 cells; assay: Western blot of pERK, apoptosis and autophagy markers in total lysate; type: cell-based, human; conditions: 0, 5, 10, 15 μM, 48 h
Protocol: (§8) “0” means DMSO vehicle control. […] Expression levels of KRAS, pERK, active caspase 3, PARP cleavage, Beclin1, LC3-I and LC3-II in total lysate were analyzed by Western blot.
as §1

KRAS = assay: KRAS-GTP pull-down by Raf-1-RBD and Western blot in lung cancer cell lines; type: cell-based, human; conditions: 48 h
Protocol: as §8, §4, §1

O=C(CBr)NCCCCc1ccc(C(=O)O)cc1 [KRA-533, 4-(4-(2-bromoacetamido)butyl)benzoic acid]
apoptotic cell death (Annexin V/PI) ([1]; 0, 5, 10, 15 μM, 48 h): leading to apoptotic cell death
sensitivity to KRAS activation, induction of apoptosis and autophagy, KRAS mutant cells versus H292 ([1]; A549, H157 and Calu-1 vs H292, 48 h): significantly more sensitive than H292 cells without KRAS mutation
KRAS activity (liquid scintillation), KRAS G12D (KRAS G12D): further enhanced the activities of active KRAS mutants
cell proliferation (NSCLC cells; various NSCLC cells): suppression of cell proliferation
sensitivity of cell proliferation, KRAS mutant cells versus H292 (NSCLC cells; A549, H157, Calu-1 vs H292): more sensitive to KRA-533 than H292 cells without KRAS mutation
binding (thermal shift), KRAS S17A (KRAS S17A [2]): could bind
binding (thermal shift), KRAS K117A (KRAS K117A): failed to bind
KRAS activity (liquid scintillation), KRAS G12C (KRAS G12C): further enhanced the activities of active KRAS mutants
KRAS activity (liquid scintillation), WT KRAS (WT KRAS): activated WT KRAS to increase its activity in a dose-dependent manner; also recorded: directly activated
KRAS activity (liquid scintillation), KRAS S17A (KRAS S17A [3]): directly activated
MTD ([4]; mouse, in vivo, ip, Nu/Nu nude mice): 300 to 400 mg/kg
Alanine transaminase (ALT) ([4]; single dose of 400 mg/kg): significantly elevated
aspartate transaminase (AST) ([4]; single dose of 400 mg/kg): significantly elevated
blood urea nitrogen (BUN) ([4]; single dose of 400 mg/kg): significantly elevated
death of mice (time) ([4]; single dose of 400 mg/kg): 8 days
weight loss or other toxicities (hematologic, liver and kidney function) ([4]; single dose of 150 or 300 mg/kg i.p.): did not cause weight loss or other toxicities
KRAS activity (liquid scintillation), KRAS G13D (KRAS G13D): further enhanced the activities of active KRAS mutants
LC3-II [5]: dose-dependent increase of LC3-II
PARP cleavage [5]: increased
levels of pERK [5]: increased levels
p62 [5]: dose-dependent decrease of p62
ratio of active caspase 3/procaspase 3 [5]: increased
KRAS activity, cell lines bearing KRAS mutation versus without (KRAS; 10 μM): enhanced KRAS activity to a greater extent in cell lines bearing KRAS mutation than in cell lines without KRAS mutation
KRAS activity (GTP-KRAS pulled down by Raf-1-RBD) (KRAS; 10 μM, human lung cancer cell lines with or without KRAS mutation): enhanced KRAS activity in most human lung cancer cell lines tested, except H292
KRAS activity (KRAS-GTP), dose response (KRAS; A549, H157, Calu-1 and H292 cells, 0, 5, 10, 15 μM): enhanced KRAS activity in a dose-dependent manner
